Results on twelve molecules are retold here after patent US12559506B2, “Indazole based compounds and associated methods of use” (Arvinas Operations, Inc., priority 2021, dated 2026).

Molecules are shown by their SMILES. Read-outs that look alike come from different tables or passages of the source.

For the assay, the target named is T1, LRRK2 (endogenous, HiBit tagged) (Homo sapiens, UniProt Q5S007).
T1 construct: endogenous in cells; host or cells: HEK293 cells with HiBit knock-in at the endogenous LRRK2 locus, stably expressing firefly luciferase
As to the kind of experiment: Endogenous LRRK2 degradation assay, endogenous gene C-terminally HiBit-tagged in HEK293 cells (Nano-Glo Dual Luciferase). Type of assay: cell-based. The gist of the method: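 LRRK2-HiBit quantified via Nano-Glo Dual Luciferase in HEK293 knock-in cells co-expressing firefly luciferase, after 24 h exposure to compound (1 μM final top, 1:3, 11 points). Values normalised to DMSO median per plate and curve-fitted; Alamar Blue viability run alongside.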

[1] abbreviates: endogenous HiBit-tagged LRRK2 in HEK293 cells, 24 hours treatment, read-out: Endogenous WT DC50.
The mark [2] stands for this setting: endogenous HiBit-tagged LRRK2 in HEK293 cells, 24 hours treatment, read-out: Endogenous WT Dmax.
Setting [3] is: endogenous HiBit-tagged LRRK2 in HEK293 cells, 24 hours treatment, read-out: **Endogenous WT Dmax (%).
[4] abbreviates: endogenous HiBit-tagged LRRK2 in HEK293 cells, 24 hours treatment, read-out: *Endogenous WT DC50.

T1 sequence (Q5S007 whole entry): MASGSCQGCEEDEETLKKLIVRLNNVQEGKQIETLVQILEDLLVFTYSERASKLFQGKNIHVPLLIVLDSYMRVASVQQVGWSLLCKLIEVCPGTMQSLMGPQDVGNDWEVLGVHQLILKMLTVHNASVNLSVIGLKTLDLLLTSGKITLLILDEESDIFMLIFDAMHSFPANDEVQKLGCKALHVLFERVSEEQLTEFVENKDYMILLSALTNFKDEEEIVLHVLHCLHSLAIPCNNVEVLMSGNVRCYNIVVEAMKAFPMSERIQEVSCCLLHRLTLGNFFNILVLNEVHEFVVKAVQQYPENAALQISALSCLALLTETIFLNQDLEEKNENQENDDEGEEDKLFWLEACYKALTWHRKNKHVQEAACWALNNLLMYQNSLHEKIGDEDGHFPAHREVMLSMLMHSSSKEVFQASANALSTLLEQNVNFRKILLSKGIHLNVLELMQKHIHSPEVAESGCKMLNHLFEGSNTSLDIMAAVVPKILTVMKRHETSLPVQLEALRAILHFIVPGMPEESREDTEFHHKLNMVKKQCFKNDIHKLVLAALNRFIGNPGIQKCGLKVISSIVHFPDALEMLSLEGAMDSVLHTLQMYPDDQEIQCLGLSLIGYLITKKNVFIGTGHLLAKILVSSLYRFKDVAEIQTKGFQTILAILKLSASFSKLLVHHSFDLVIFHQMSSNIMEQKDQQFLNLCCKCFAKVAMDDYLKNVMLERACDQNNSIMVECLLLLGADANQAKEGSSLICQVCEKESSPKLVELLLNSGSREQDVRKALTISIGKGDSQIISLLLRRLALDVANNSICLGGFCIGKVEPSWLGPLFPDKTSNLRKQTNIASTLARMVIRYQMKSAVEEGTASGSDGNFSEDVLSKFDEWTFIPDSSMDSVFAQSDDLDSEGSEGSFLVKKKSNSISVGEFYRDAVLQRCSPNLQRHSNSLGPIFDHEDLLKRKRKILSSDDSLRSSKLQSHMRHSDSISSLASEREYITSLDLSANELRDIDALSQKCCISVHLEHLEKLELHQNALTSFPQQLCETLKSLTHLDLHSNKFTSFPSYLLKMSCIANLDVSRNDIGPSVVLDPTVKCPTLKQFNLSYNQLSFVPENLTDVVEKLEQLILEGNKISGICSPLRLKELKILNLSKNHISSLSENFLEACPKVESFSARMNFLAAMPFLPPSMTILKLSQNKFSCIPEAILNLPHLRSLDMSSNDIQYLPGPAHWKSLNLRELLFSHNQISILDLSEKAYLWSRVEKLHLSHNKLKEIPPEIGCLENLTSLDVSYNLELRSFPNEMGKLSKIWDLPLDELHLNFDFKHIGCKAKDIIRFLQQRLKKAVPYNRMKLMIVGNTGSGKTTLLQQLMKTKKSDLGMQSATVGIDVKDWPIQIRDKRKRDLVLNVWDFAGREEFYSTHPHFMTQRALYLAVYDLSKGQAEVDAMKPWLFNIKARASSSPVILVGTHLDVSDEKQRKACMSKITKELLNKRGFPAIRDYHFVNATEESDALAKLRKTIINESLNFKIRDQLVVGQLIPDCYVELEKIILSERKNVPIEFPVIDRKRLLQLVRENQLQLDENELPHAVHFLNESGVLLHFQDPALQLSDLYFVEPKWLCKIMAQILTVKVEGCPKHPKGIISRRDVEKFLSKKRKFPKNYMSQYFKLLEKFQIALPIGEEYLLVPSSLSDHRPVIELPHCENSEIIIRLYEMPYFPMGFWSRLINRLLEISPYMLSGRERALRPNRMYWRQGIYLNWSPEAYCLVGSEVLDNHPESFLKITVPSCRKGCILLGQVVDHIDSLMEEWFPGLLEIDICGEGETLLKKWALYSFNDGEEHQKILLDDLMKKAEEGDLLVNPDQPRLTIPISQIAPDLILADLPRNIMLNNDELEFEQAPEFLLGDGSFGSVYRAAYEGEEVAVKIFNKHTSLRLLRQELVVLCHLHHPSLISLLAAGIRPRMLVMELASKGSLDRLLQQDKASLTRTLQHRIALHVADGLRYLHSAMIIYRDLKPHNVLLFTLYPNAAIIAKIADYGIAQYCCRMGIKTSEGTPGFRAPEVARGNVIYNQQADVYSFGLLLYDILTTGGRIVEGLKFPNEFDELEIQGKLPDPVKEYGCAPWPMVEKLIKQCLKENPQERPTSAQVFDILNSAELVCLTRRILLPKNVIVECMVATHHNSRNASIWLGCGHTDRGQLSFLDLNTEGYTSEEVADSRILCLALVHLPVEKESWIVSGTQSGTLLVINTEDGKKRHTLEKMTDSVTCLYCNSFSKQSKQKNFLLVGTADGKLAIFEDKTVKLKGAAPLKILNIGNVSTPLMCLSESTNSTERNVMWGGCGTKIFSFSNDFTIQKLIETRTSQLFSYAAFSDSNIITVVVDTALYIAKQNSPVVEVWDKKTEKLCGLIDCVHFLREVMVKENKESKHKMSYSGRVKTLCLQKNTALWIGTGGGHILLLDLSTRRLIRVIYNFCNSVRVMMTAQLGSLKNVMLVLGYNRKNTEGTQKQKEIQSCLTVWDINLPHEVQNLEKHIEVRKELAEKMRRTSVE

`CC1(Oc2cc3c(-c4cc(N5CCC(O[C@H]6CC[C@H](OC7CCN(c8ccc9c(c8F)CN(C8CCC(=O)NC8=O)C9=O)CC7)CC6)CC5)ncn4)n[nH]c3cn2)CC1` (stereo partly drawn) [Compound 210, 3-[4-fluoro-5-[4-[4-[[1-[6-[5-(1-methylcyclopropoxy)-1H-pyrazolo[3,4-c]pyridin-3-yl]pyrimidin-4-yl]-4-piperidyl]oxy]cyclohexoxy]-1-piperidyl]-1-oxo-isoindolin-2-yl]piperidine-2,6-dione]: under setting [1], the 50% degradation concentration (DC50) was less than 0.01 µM. The maximal degradation (Dmax) under setting [2] was not below 70%.
`COc1c(N2CCC(CN3CCN(CC4CCN(c5cc(-c6n[nH]c7cnc(OC8(C)CC8)cc67)ncn5)CC4)C[C@@H]3C)CC2)ccc2c1CN(C1CCC(=O)NC1=O)C2=O` (stereo partly drawn) [Compound 271, 3-[4-methoxy-5-(4-{[(2S)-2-methyl-4-[(1-{6-[5-(1-methylcyclopropoxy)-1H-pyrazolo[3,4-c]pyridin-3-yl]pyrimidin-4-yl}piperidin-4-yl)methyl]piperazin-1-yl]methyl}piperidin-1-yl)-1-oxo-2,3-dihydro-1H-isoindol-2-yl]piperidine-2,6-dione]: the Dmax under setting [3] lay in the range of 50 to 70%. Further, under setting [4], the DC50 is less than 0.01 µM.
Turning to `CC1(Oc2ccc3n[nH]c(-c4cc(N5CCC(CN6CCN(CC7(F)CCN(c8ccc9c(c8F)CN(C8CCC(=O)NC8=O)C9=O)CC7)CC6)CC5)ncn4)c3c2)CC1` (stereo not drawn) [Compound 209, 3-[4-fluoro-5-[4-fluoro-4-[[4-[[1-[6-[5-(1-methylcyclopropoxy)-2H-indazol-3-yl]pyrimidin-4-yl]-4-piperidyl]methyl]piperazin-1-yl]methyl]-1-piperidyl]-1-oxo-isoindolin-2-yl]piperidine-2,6-dione], the DC50 under setting [1] was less than 0.01 µM. Further, the Dmax under setting [2] was not below 70%.
Consider `CC1(Oc2ccc3n[nH]c(-c4cc(N5CCC(O[C@H]6CC[C@H](CN7CCN(c8ccc9c(c8F)CN(C8CCC(=O)NC8=O)C9=O)CC7)CC6)CC5)ncn4)c3c2)CC1` (stereo partly drawn) [Compound 213, 3-[4-fluoro-5-[4-[[4-[[1-[6-[5-(1-methylcyclopropoxy)-2H-indazol-3-yl]pyrimidin-4-yl]-4-piperidyl]oxy]cyclohexyl]methyl]piperazin-1-yl]-1-oxo-isoindolin-2-yl]piperidine-2,6-dione], for which the DC50 under setting [1] is less than 0.01 µM. For the same molecule, the Dmax under setting [2] is not below 70%.
For `CC1(Oc2cc3c(-c4cc(N5CCC(CN6CCN(CC7CCN(c8cc9c(cc8F)C(=O)N(C8CCC(=O)NC8=O)C9)CC7)CC6)CC5)ncn4)n[nH]c3cn2)CC1` (stereo not drawn) [Compound 191, 3-[6-fluoro-5-[4-[[4-[[1-[6-[5-(1-methylcyclopropoxy)-1H-pyrazolo[3,4-c]pyridin-3-yl]pyrimidin-4-yl]-4-piperidyl]methyl]piperazin-1-yl]methyl]-1-piperidyl]-1-oxo-isoindolin-2-yl]piperidine-2,6-dione], under “endogenous HiBit-tagged LRRK2, HEK293 cells, 24 hours, read-out: **Endogenous WT Dmax (%)”, the Dmax is not below 70%. The DC50 (endogenous HiBit-tagged LRRK2, HEK293 cells, 24 hours, read-out: *Endogenous WT DC50) is less than 0.01 µM.
Turning to `CC1(Oc2cc3c(-c4cc(N5CCN(C[C@H]6CC[C@H](CN7CCN(c8ccc9c(c8F)CN(C8CCC(=O)NC8=O)C9=O)CC7)CC6)CC5)ncn4)n[nH]c3cc2F)CC1` (stereo partly drawn) [Compound 203, 3-[4-fluoro-1-oxo-5-(4-{[(1r,4r)-4-[(4-{6-[6-fluoro-5-(1-methylcyclopropoxy)-1H-indazol-3-yl]pyrimidin-4-yl}piperazin-1-yl)methyl]cyclohexyl]methyl}piperazin-1-yl)-2,3-dihydro-1H-isoindol-2-yl]piperidine-2,6-dione], the DC50 under setting [1] is less than 0.01 µM. The Dmax under setting [2] was not below 70%.
As to `C[C@H]1CN(c2cc(-c3n[nH]c4ccc(OC5(C)CC5)cc34)ncn2)CCN1CC1(F)CN(CC2CCN(c3ccc4c(c3)C(=O)N(C3CCC(=O)NC3=O)C4=O)CC2)C1` (stereo partly drawn) [Compound 123, 2-(2,6-dioxopiperidin-3-yl)-5-{4-[(3-fluoro-3-{[(2S)-2-methyl-4-{6-[5-(1-methylcyclopropoxy)-1H-indazol-3-yl]pyrimidin-4-yl}piperazin-1-yl]methyl}azetidin-1-yl)methyl]piperidin-1-yl}-2,3-dihydro-1H-isoindole-1,3-dione], for the setting “endogenous HiBit-tagged LRRK2 in HEK293 cells, 24 hours, read-out: **Endogenous WT Dmax (%)”, the Dmax was less than 50%. For the setting “endogenous HiBit-tagged LRRK2 in HEK293 cells, 24 hours, read-out: *Endogenous WT DC50”, the half-maximal degradation concentration (DC50) is less than 0.01 µM.
As for `COc1c(N2CCN(C[C@H]3CC[C@H](OC4CCN(c5cc(-c6[nH]nc7ccc(OC8(C)CC8)cc67)ncn5)CC4)CC3)CC2)ccc2c1CN(C1CCC(=O)NC1=O)C2=O` (stereo partly drawn) [Compound 252, 3-[4-methoxy-1-oxo-5-(4-{[(1r,4r)-4-[(1-{6-[5-(1-methylcyclopropoxy)-2H-indazol-3-yl]pyrimidin-4-yl}piperidin-4-yl)oxy]cyclohexyl]methyl}piperazin-1-yl)-2,3-dihydro-1H-isoindol-2-yl]piperidine-2,6-dione], the DC50 under setting [1] was less than 0.01 µM. The Dmax under setting [2] lay in the range of 50 to 70%.
The corresponding values for `CC1(Oc2cc3c(-c4cc(N5CCC(CN6CCC(F)(CC7CCN(c8ccc9c(c8F)CN(C8CCC(=O)NC8=O)C9=O)CC7)CC6)CC5)ncn4)n[nH]c3cc2F)CC1` (stereo not drawn) [Compound 232, 3-{4-fluoro-5-[4-({4-fluoro-1-[(1-{6-[6-fluoro-5-(1-methylcyclopropoxy)-1H-indazol-3-yl]pyrimidin-4-yl}piperidin-4-yl)methyl]piperidin-4-yl}methyl)piperidin-1-yl]-1-oxo-2,3-dihydro-1H-isoindol-2-yl}piperidine-2,6-dione] are less than 0.01 µM and 50 to 70%.
Regarding `COc1c(N2CCC(CN3CCN(C(C)(C)C4CCN(c5cc(-c6n[nH]c7ccc(OC8(C)CC8)cc67)ncn5)CC4)CC3)CC2)ccc2c1CN(C1CCC(=O)NC1=O)C2=O` (stereo not drawn) [Compound 331, 3-{4-methoxy-5-[4-({4-[2-(1-{6-[5-(1-methylcyclopropoxy)-1H-indazol-3-yl]pyrimidin-4-yl}piperidin-4-yl)propan-2-yl]piperazin-1-yl}methyl)piperidin-1-yl]-1-oxo-2,3-dihydro-1H-isoindol-2-yl}piperidine-2,6-dione], the maximal degradation (Dmax) under setting [3] is 50 to 70%. For the same molecule, the DC50 under setting [4] was less than 0.01 µM.
The corresponding values for `CC1(Oc2ccc3[nH]nc(-c4cc(N5CCC(O[C@H]6CC[C@H](CN7CCN(c8c(F)cc9c(c8F)CN(C8CCC(=O)NC8=O)C9=O)CC7)CC6)CC5)ncn4)c3c2)CC1` (stereo partly drawn) [Compound 269, 3-[4,6-difluoro-1-oxo-5-(4-{[(1r,4r)-4-[(1-{6-[5-(1-methylcyclopropoxy)-1H-indazol-3-yl]pyrimidin-4-yl}piperidin-4-yl)oxy]cyclohexyl]methyl}piperazin-1-yl)-2,3-dihydro-1H-isoindol-2-yl]piperidine-2,6-dione] are 50 to 70% and less than 0.01 µM.
Turning to `CC1(Oc2ccc3[nH]nc(-c4cc(N5CCN(C[C@H]6CC[C@H](OC7CCN(c8ccc9c(c8F)CN(C8CCC(=O)NC8=O)C9=O)CC7)CC6)CC5(C)C)ncn4)c3c2)CC1` (stereo partly drawn) [Compound 383, 3-(5-(4-(((1r,4r)-4-((3,3-dimethyl-4-(6-(5-(1-methylcyclopropoxy)-1H-indazol-3-yl)pyrimidin-4-yl)piperazin-1-yl)methyl)cyclohexyl)oxy)piperidin-1-yl)-4-fluoro-1-oxoisoindolin-2-yl)piperidine-2,6-dione], the DC50 under setting [1] fell in the range of 0.05 to 0.1 µM. Besides, the Dmax under setting [2] was less than 50%.
